Measurements: publication PMC12769565, “Design, synthesis and biological activity of glycoconjugated ADAMTS5 exosite inhibitors: applications in osteoarthritis and ovarian cancer models” (Scientific Reports, 2025)

How the values were obtained:
[1] = target: T1, ADAMTS5 (Homo sapiens, UniProt Q9UNA0); assay: Aggrecanase assay (bovine aggrecan, anti-ARGSV neoepitope immunoblot); type: biochemical
T1 construct: Human recombinant full-length FLAG-tagged ADAMTS4 and ADAMTS5 were expressed in HEK293T cells; FLAG; made in house; host or cells: HEK293T cells
T1 sequence (Q9UNA0 262-930): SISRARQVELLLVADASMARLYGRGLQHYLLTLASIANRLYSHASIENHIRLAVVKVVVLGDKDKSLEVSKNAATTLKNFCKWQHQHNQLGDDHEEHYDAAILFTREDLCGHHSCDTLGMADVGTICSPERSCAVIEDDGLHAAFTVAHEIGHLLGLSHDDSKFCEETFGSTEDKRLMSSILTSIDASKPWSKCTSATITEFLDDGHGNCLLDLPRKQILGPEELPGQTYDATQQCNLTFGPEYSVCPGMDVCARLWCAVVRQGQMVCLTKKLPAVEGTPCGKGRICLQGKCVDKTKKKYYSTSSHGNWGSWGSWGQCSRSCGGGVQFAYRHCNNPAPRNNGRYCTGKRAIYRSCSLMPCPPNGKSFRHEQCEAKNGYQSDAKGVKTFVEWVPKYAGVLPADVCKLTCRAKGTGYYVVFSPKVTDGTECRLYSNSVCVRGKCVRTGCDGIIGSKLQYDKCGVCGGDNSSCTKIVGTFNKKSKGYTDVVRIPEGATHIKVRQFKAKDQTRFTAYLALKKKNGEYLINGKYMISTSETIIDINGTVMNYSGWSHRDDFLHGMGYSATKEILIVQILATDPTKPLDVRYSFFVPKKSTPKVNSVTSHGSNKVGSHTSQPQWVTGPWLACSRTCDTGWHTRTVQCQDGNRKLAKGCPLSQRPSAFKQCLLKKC
Protocol: Aggrecanase assays were carried out as before. ADAMTS5 (1 nM) was incubated with compounds 2 and 3 or DMSO for 2 h at 37 °C in TNC-B buffer before addition of bovine articular aggrecan (UniProt ID: P13608, 270 nM) (Merck, A1960). After 2 h digestion at 37 °C, the reactions were stopped with ethylenediaminetetraacetic acid and the samples incubated with 0.1 U/ml of chondroitinase ABC (AMS Biotechnology, Abingdon, UK) and keratanase (endo-beta galactosidase, Merck, G6920) in deglycosylation buffer (50 mM sodium acetate, 25 mM Tris HCl pH 8.0) for 16 h at 37 °C to remove GAG chains.
Samples were separated by SDS-PAGE under reducing conditions (5% β-mercaptoethanol) on BOLT, 4–12%, Bis-Tris Gels (Invitrogen) in MES Running Buffer (NuPAGE). Proteins were transferred onto a nitrocellulose membrane using Trans-Blot Turbo™ Transfer System (BioRad), at 25 V, 2.5 A for 30 min. Membranes were blocked with 3% BSA/PBS for 1 h at room temperature. Aggrecan fragments generated by ADAMTS cleavage at E^392-A^393[8] or E^1953-A^1954[68] were detected using mouse monoclonal anti-ARGSV antibody (BC3, Life Technologies, MA3-16888, 4 µg/ml) or polyclonal anti-AGEG neoepitope antibody (serum, 1:200 dilution)[12],[33], respectively, followed by the appropriate horseradish peroxidase (HRP)-conjugated secondary antibodies (polyclonal Goat Anti-Mouse P0447, 0.1 ng/µl and polyclonal Goat Anti-Rabbit, P0448, 0.03 ng/µl, both from Agilent Technologies LDA UK Ltd). All antibodies were diluted in 0.5% bovine serum albumin (BSA)/PBS. Washes between each step were carried out in triplicate, for 15 min each, with PBS-Tween (0.1%). Following addition of the chemiluminescent HRP substrate (Millipore, WBKL30500) membranes were imaged using Bio-Rad Chemidoc Touch Imaging System. Analysis was carried out using BioRad ImageLab software (version 5.2.1) using sequential exposures to avoid saturation artifacts. Figures for unprocessed blots are included in Supplementary information Fig. S4 and Fig. S5 with highlighted regions (in red boxes) corresponding to the data reported in the main manuscript figures.

[2] = system: porcine cartilage explants; assay: Cell viability MTS assay; type: cell-based, pig; details: 100 µM; 72 h; vs DMSO control
Protocol: Porcine articular cartilage from the joints of 3–9 month old pigs was supplied by a local abattoir within 2 h of slaughter and dissected into small pieces approximately 3 mm long and 3–4 mm wide. Each piece weighed roughly 10 mg. After dissection, the cartilage was allowed to acclimatize for 24 h at 37 °C under 5% CO2 in Dulbecco’s Modified Eagle Medium (DMEM) containing 100 U/ml penicillin, 100 µg/ml streptomycin, 10% fetal bovine serum (FBS).
(§1) Cell viability was assessed using CellTiter® 96 Aqueous One Solution Cell Proliferation Assay (Promega, G3582) following the manufacturer’s protocol. The assay is based on the reduction of [3-(4,5-dimethylthiazol-2-yl)-5-(3-carboxymethoxyphenyl)-2-(4-sulfophenyl)-2 H-tetrazolium] (MTS) and phenazine ethosulfate into formazan. Compounds 2 and 4b, GM6001 (Merck, 364206) (10–100 µM), or DMSO control were incubated in 48-well Nunc™ plates (Thermo Fisher Scientific,150687) with HEK293T cells, human non-OA chondrocytes, porcine cartilage explants, or human OA cartilage explants for 72 h. At least 3 independent experiments were carried out with 3 technical replicates each. For experiments involving human samples, independent experiments were carried out on 3 different donors. Absorbance at 490 nm was measured on a SpectraMax i3x Multi-Mode Platform (Molecular Devices). Cell viability was normalized to DMSO controls.

[3] = system: human OA cartilage explants; assay: Cell viability MTS assay; type: cell-based; details: 100 µM; 72 h; vs DMSO control
Protocol: Human OA cartilage was obtained from Clatterbridge Hospital, Wirral, UK, following total knee arthroplasty procedures with informed patient consent in full compliance with national and institutional ethical requirements, the United Kingdom Human Tissue Act, and the Declaration of Helsinki (REC 18/WA/0344). Explants (~ 36 mm^3, ~ 40 mg wet volume/weight) from each of 3 donors were placed in one well of a 48-well plate and allowed to rest for 24 h in 1 ml of DMEM containing 10% FBS before use. The medium was replaced, and the cartilage was rested for a further 24 h in 1 ml DMEM at 37 °C before assays.
as §1, with “For experiments involving human samples, independent experiments were carried out on 3 different donors.” left out, “Cell viability was normalized to DMSO controls.” left out

## CCC(C)N(Cc1cn(CCCO[C@@H]2O[C@H](CO)[C@@H](O[C@@H]3O[C@H](CO)[C@H](O)[C@H](O)[C@H]3O)[C@H](O)[C@H]2NC(C)=O)nn1)S(=O)(=O)c1ccc(-c2ccccc2)cc1 (stereo partly drawn) [compound 2, N-((2R,3R,4R,5 S,6R)-2-(3-(4-((N-(sec-butyl)-[1,1’-biphenyl]-4-sulfonamido)methyl)-1H-1,2,3-triazol-1-yl)propoxy)-4-hydroxy-6-(hydroxymethyl)-5-(((2 S,3R,4 S,5R,6R)-3,4,5-trihydroxy-6-(hydroxymethyl)tetrahydro-2 H-pyran-2-yl)oxy)tetrahydro-2 H-pyran-3-yl)acetamide]
[1]; 10 µM
  inhibition at 10 µM: 53%
[1]; 100 µM
  inhibition at 100 µM: 80%
[2]
  decrease of cell viability: did not exhibit cytotoxicity
[3]
  effect on cell viability: no effect on cell viability was observed
